From patent US11053204B2, “Pyrimidinyloxy benzene derivatives as herbicides” (FMC Corporation, priority 2015, dated 2021)

Key:
Type in all cases: in vivo
[1] = test system: morningglory (Ipomoea coccinea); assay: Test C postemergence, plant response rating; details: for Plant response rating, Morningglory: scale 0 to 100; for Morningglory plant response rating: scale 0 to 100 (0 no effect, 100 complete control)
Procedure, shortened: (§1)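 Preemergence: seeds sown in loam–sand blend or silt loam and sprayed with test chemicals in a non-phytotoxic surfactant-containing solvent. Postemergence: potted plants at 2–18 cm (1–4-leaf stage) sprayed with the same formulation. After 13–15 d in greenhouse, visual rating versus controls on 0 (no effect) to 100 (complete control) scale.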

[2] = test system: chickweed (common chickweed, Stellaria media); assay: Test C postemergence, plant response rating; details: for Plant response rating, Chickweed: scale 0 to 100; for Chickweed plant response rating: scale 0 to 100 (0 no effect, 100 complete control)
Procedure, shortened: as §1

[3] = test system: foxtail, giant (giant foxtail, Setaria faberii); assay: Test C postemergence, plant response rating; details: for Plant response rating, Foxtail, Giant: scale 0 to 100; for Foxtail, Giant plant response rating: scale 0 to 100 (0 no effect, 100 complete control)
Procedure, shortened: as §1

[4] = test system: ragweed (common ragweed, Ambrosia elatior); assay: Test C preemergence, plant response rating; details: Preemergence
Procedure, shortened: as §1

[5] = test system: morningglory (Ipomoea coccinea); assay: Test C preemergence, plant response rating; details: Preemergence
Procedure, shortened: as §1

[6] = test system: nutsedge, yellow (yellow nutsedge, Cyperus esculentus); assay: Test C preemergence, plant response rating; details: Preemergence
Procedure, shortened: as §1

[7] = test system: oilseed rape (Brassica napus); assay: Test C preemergence, plant response rating; details: Preemergence
Procedure, shortened: as §1

[8] = test system: foxtail, giant (giant foxtail, Setaria faberii); assay: Test C preemergence, plant response rating; details: Preemergence
Procedure, shortened: as §1

[9] = test system: blackgrass (Alopecurus myosuroides); assay: Test C preemergence, plant response rating; details: Preemergence
Procedure, shortened: as §1

[10] = test system: ryegrass, Italian (Italian ryegrass, Lolium multiflorum); assay: Test C preemergence, plant response rating; details: Preemergence
Procedure, shortened: as §1

[11] = test system: waterhemp (common waterhemp, Amaranthus rudis); assay: Test C preemergence, plant response rating; details: Preemergence
Procedure, shortened: as §1

[12] = test system: wheat (winter wheat, Triticum aestivum); assay: Test C preemergence, plant response rating; details: Preemergence
Procedure, shortened: as §1

[13] = test system: soybean (Glycine max); assay: Test C preemergence, plant response rating; details: Preemergence
Procedure, shortened: as §1

[14] = test system: lambsquarters (Chenopodium album); assay: Test C preemergence, plant response rating; details: Preemergence
Procedure, shortened: as §1

[15] = test system: crabgrass, large (large crabgrass, Digitaria sanguinalis); assay: Test C preemergence, plant response rating; details: Preemergence
Procedure, shortened: as §1

[16] = test system: corn (Zea mays); assay: Test C preemergence, plant response rating; details: Preemergence
Procedure, shortened: as §1

[17] = test system: velvetleaf (Abutilon theophrasti); assay: Test C preemergence, plant response rating; details: Preemergence
Procedure, shortened: as §1

[18] = test system: ducksalad (Heteranthera limosa); assay: Test B flooded paddy test, plant response rating; details: 250 g ai/ha; Flood; scale of 0 to 100 where 0 is no effect and 100 is complete control; 13 to 15 days
Procedure, shortened: (§2)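 Pots were flooded to 3 cm above the soil surface at treatment, compound applied directly to the paddy water, and that depth held throughout. Plants were kept in a greenhouse for 13 to 15 days, then visually rated against untreated controls.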

[19] = test system: barnyardgrass (Echinochloa crus-galli); assay: Test B flooded paddy test, plant response rating; details: 250 g ai/ha; Flood; scale of 0 to 100 where 0 is no effect and 100 is complete control; 13 to 15 days
Procedure, shortened: as §2

[20] = test system: sedge, umbrella (small-flower umbrella sedge, Cyperus difformis); assay: Test B flooded paddy test, plant response rating; details: 250 g ai/ha; Flood; scale of 0 to 100 where 0 is no effect and 100 is complete control; 13 to 15 days
Procedure, shortened: as §2

[21] = test system: rice (Oryza sativa); assay: Test B flooded paddy test, plant response rating; details: 250 g ai/ha; Flood; scale of 0 to 100 where 0 is no effect and 100 is complete control; 13 to 15 days
Procedure, shortened: as §2

SMILES: CCCC(=O)c1c(Br)cccc1Oc1ncc(Cl)cn1 [Compound 75]
- Plant response rating, Morningglory ([1]; 16 g ai/ha): 5
- Plant response rating, Morningglory ([1]; 31 g ai/ha): 15
- Morningglory plant response rating ([1]; 62 g ai/ha): 20
- Morningglory plant response rating ([1]; 125 g ai/ha): 65
- Plant response rating, Chickweed ([2]; 16 g ai/ha): 60
- Plant response rating, Chickweed ([2]; 31 g ai/ha): 85
- Chickweed plant response rating ([2]; 62 g ai/ha): 90
- Chickweed plant response rating ([2]; 125 g ai/ha): 98
- Plant response rating, Foxtail, Giant ([3]; 16 g ai/ha): 10
- Plant response rating, Foxtail, Giant ([3]; 31 g ai/ha): 10
- Foxtail, Giant plant response rating ([3]; 62 g ai/ha): 10
- Foxtail, Giant plant response rating ([3]; 125 g ai/ha): 25
- Plant response rating, Ragweed ([4]; 125 g ai/ha, scale of 0 to 100): 5
- Plant response rating, Ragweed ([4]; 16 g ai/ha, scale 0 to 100): 0
- Plant response rating, Ragweed ([4]; 31 g ai/ha, scale 0 to 100): 0
- Plant response rating, Ragweed ([4]; 62 g ai/ha, scale 0 to 100): 0
- Plant response rating, Morningglory ([5]; 125 g ai/ha, scale of 0 to 100): 10
- Plant response rating, Morningglory ([5]; 16 g ai/ha, scale 0 to 100): 0
- Plant response rating, Morningglory ([5]; 31 g ai/ha, scale 0 to 100): 0
- Plant response rating, Morningglory ([5]; 62 g ai/ha, scale 0 to 100): 20
- Plant response rating, Nutsedge, Yellow ([6]; 125 g ai/ha, scale of 0 to 100): 20
- Plant response rating, Nutsedge, Yellow ([6]; 16 g ai/ha, scale 0 to 100): 0
- Plant response rating, Nutsedge, Yellow ([6]; 31 g ai/ha, scale 0 to 100): 0
- Plant response rating, Nutsedge, Yellow ([6]; 62 g ai/ha, scale 0 to 100): 0
- Plant response rating, Oilseed Rape ([7]; 125 g ai/ha, scale of 0 to 100): 40
- Plant response rating, Oilseed Rape ([7]; 16 g ai/ha, scale 0 to 100): 0
- Plant response rating, Oilseed Rape ([7]; 31 g ai/ha, scale 0 to 100): 0
- Plant response rating, Oilseed Rape ([7]; 62 g ai/ha, scale 0 to 100): 10
- Plant response rating, Foxtail, Giant ([8]; 62 g ai/ha, scale of 0 to 100): 65
- Plant response rating, Foxtail, Giant ([8]; 125 g ai/ha, scale of 0 to 100): 98
- Plant response rating, Foxtail, Giant ([8]; 16 g ai/ha, scale 0 to 100): 0
- Plant response rating, Foxtail, Giant ([8]; 31 g ai/ha, scale 0 to 100): 25
- Plant response rating, Blackgrass ([9]; 62 g ai/ha, scale of 0 to 100): 80
- Plant response rating, Blackgrass ([9]; 125 g ai/ha, scale of 0 to 100): 75
- Plant response rating, Blackgrass ([9]; 16 g ai/ha, scale 0 to 100): 0
- Plant response rating, Blackgrass ([9]; 31 g ai/ha, scale 0 to 100): 5
- Plant response rating, Ryegrass, Italian ([10]; 125 g ai/ha, scale of 0 to 100): 15
- Plant response rating, Ryegrass, Italian ([10]; 16 g ai/ha, scale 0 to 100): 0
- Plant response rating, Ryegrass, Italian ([10]; 31 g ai/ha, scale 0 to 100): 5
- Plant response rating, Ryegrass, Italian ([10]; 62 g ai/ha, scale 0 to 100): 5
- Plant response rating, Waterhemp ([11]; 125 g ai/ha, scale of 0 to 100): 98
- Plant response rating, Waterhemp ([11]; 16 g ai/ha, scale 0 to 100): 75
- Plant response rating, Waterhemp ([11]; 31 g ai/ha, scale 0 to 100): 95
- Plant response rating, Waterhemp ([11]; 62 g ai/ha, scale 0 to 100): 98
- Plant response rating, Wheat ([12]; 125 g ai/ha, scale of 0 to 100): 10
- Plant response rating, Wheat ([12]; 16 g ai/ha, scale 0 to 100): 0
- Plant response rating, Wheat ([12]; 31 g ai/ha, scale 0 to 100): 0
- Plant response rating, Wheat ([12]; 62 g ai/ha, scale 0 to 100): 10
- Plant response rating, Soybean ([13]; 125 g ai/ha, scale of 0 to 100): 50
- Plant response rating, Soybean ([13]; 16 g ai/ha, scale 0 to 100): 0
- Plant response rating, Soybean ([13]; 31 g ai/ha, scale 0 to 100): 0
- Plant response rating, Soybean ([13]; 62 g ai/ha, scale 0 to 100): 10
- Plant response rating, Lambsquarters ([14]; 125 g ai/ha, scale of 0 to 100): 70
- Plant response rating, Lambsquarters ([14]; 16 g ai/ha, scale 0 to 100): 0
- Plant response rating, Lambsquarters ([14]; 31 g ai/ha, scale 0 to 100): 10
- Plant response rating, Lambsquarters ([14]; 62 g ai/ha, scale 0 to 100): 35
- Plant response rating, Crabgrass, Large ([15]; 62 g ai/ha, scale of 0 to 100): 98
- Plant response rating, Crabgrass, Large ([15]; 125 g ai/ha, scale of 0 to 100): 98
- Plant response rating, Crabgrass, Large ([15]; 16 g ai/ha, scale 0 to 100): 65
- Plant response rating, Crabgrass, Large ([15]; 31 g ai/ha, scale 0 to 100): 85
- Plant response rating, Corn ([16]; 62 g ai/ha, scale of 0 to 100): 0
- Plant response rating, Corn ([16]; 125 g ai/ha, scale of 0 to 100): 5
- Plant response rating, Corn ([16]; 16 g ai/ha, scale 0 to 100): 0
- Plant response rating, Corn ([16]; 31 g ai/ha, scale 0 to 100): 0
- Plant response rating, Velvetleaf ([17]; 125 g ai/ha, scale of 0 to 100): 25
- Plant response rating, Velvetleaf ([17]; 16 g ai/ha, scale 0 to 100): 0
- Plant response rating, Velvetleaf ([17]; 31 g ai/ha, scale 0 to 100): 5
- Plant response rating, Velvetleaf ([17]; 62 g ai/ha, scale 0 to 100): 35
- Plant response rating, Ducksalad [18]: 95
- Plant response rating, Barnyardgrass [19]: 40
- Plant response rating, Sedge, Umbrella [20]: 95
- Plant response rating, Rice [21]: 35
